Experimental data reported in patent publication US20030125264A1, “Methods For Treating Wounds” (Kimberly-Clark Worldwide, Inc., priority 2001, published 2003).

Tested on: human foreskin fibroblasts (ATCC cell line CRL-2522)
Experiment: proliferative response of human skin fibroblasts to flavonoids (96-well, Cell Titer 96 Aqueous One, absorbance 490 nm)
Type: cell-based
Conditions: for difference in cell proliferation between controls and test compound (one-way ANOVA): P<0.01 and 0.05, vehicle control 0.1% DMSO in DMEM, n=6; for cell proliferating effect on human skin fibroblasts: at lower concentrations (samples tested at 10^-4, 10^-5 and 10^-6 M; 28 hours, serum-free DMEM, 0.1% DMSO, n=6)
Method: The proliferative response of flavonoids to the human skin fibroblast cell line (ATCC, Manassas, Va., cell line CRL-2522 human foreskin fibroblast) was determined in a 96-well assay system using serum-free medium as a control. Stock solutions of flavonoids were prepared as 1.0 mole/L solutions in Dimethyl sulfoxide (DMSO, Sigma Chemical Company, St. Louis, Mo.) then diluted with Dulbecco's Modified Eagle's Medium (DMEM, Sigma Chemical Co., St. Louis, Mo.) to 10^−4, 10^−5, and 10^−6 M solutions with a final DMSO concentration of 0.1% (v:v). Cells were seeded into 96 well plates at a concentration of 2×10^3 cells in 100 μl of DMEM containing 10% fetal bovine serum (FBS, Sigma Chemical Co., St. Louis, Mo.). Plates were incubated for 24 hours at 37° C. in a humidified, 5% CO2 atmosphere. After incubation, the medium was aspirated and the wells were rinsed twice with 100 μl of serum-free DMEM. The final rinse was aspirated and 100 μl of the 10^−4-10^−6 M of each solution was added to 6 wells. In addition, 100 μl of vehicle (serum free DMEM with DMSO at 0.1% v:v) was added to 6 wells as control. In addition, duplicate wells of each test and control solution were placed in wells without the human fibroblast cells to serve as blanks for each treatment. All wells were incubated for 28 hours at 37° C. in a humidified, 5% CO2 atmosphere. After incubation, 20 μl of Cell Titer 96 Aqueous One Solution Reagent (Promega, Corp., Madison, Wis.) was added to all wells. The plates were swirled gently and place back in the incubator for 45 minutes and spectrophotometric absorbance was read at 490 nm. Absorbance of the wells without cells was subtracted from the absorbance of the wells with cells to give the true absorbance. Various compounds of present invention were tested for their cell proliferating effect on human skin fibroblasts. The effect of flavonoids naringin and quercetin on cell proliferation in human foreskin fibroblasts (ATCC cell line CRL-2522) was measured and data is presented in FIG. 1. The control and all test materials contained a final concentration of 0.1% DMSO in DMEM with n=6. Sample concentrations were 10^−4, 10^−5 and 10^−6 M. Statistical analysis was done by using one-way ANOVA.

Row | SMILES | difference in cell proliferation between controls and test compound (one-way ANOVA) | cell proliferating effect on human skin fibroblasts | cell growth relative to the control (at higher concentrations (samples tested at 10^-4, 10^-5 and 10^-6 M; 28 hours, serum-free DMEM, 0.1% DMSO, n=6))
1 | C[C@@H]1O[C@@H](O[C@H]2[C@H](Oc3cc(O)c4c(c3)O[C@H](c3ccc(O)cc3)CC4=O)O[C@H](CO)[C@@H](O)[C@@H]2O)[C@H](O)[C@H](O)[C@H]1O [naringin] | Statistically significant difference | good cell proliferating agents | –
2 | O=c1c(O)c(-c2ccc(O)c(O)c2)oc2cc(O)cc(O)c12 [quercetin] | Statistically significant difference | good cell proliferating agents | appears to show cell inhibition
